Calls of active or inactive are those of the source. The rule behind the calls is not given here.
Key:
[1] = system: Reovirus sp.; assay: Antiviral activity against Reovirus; format: functional, organism-based
[2] = system: Respiratory syncytial virus; assay: Antiviral activity against RSV A2 in VERO76 cells assessed as reduction of plaque number by MTT method; format: functional, organism-based; conditions: human respiratory syncytial virus, A2, Vero 76
[3] = system: Yellow fever virus; assay: Antiviral activity against YFV in BHK cells assessed as protection from virus-induced cytopathogenicity by MTT method; format: functional, organism-based
[4] = system: Human immunodeficiency virus 1; assay: Antiviral activity against HIV1; format: functional, organism-based
[5] = Cytotoxicity against human MT4 cells after 96 hrs by MTT method; format: cell-based
[6] = system: Vesicular stomatitis virus; assay: Antiviral activity against vesicular stomatitis virus; format: functional, organism-based
[7] = system: Vaccinia virus; assay: Antiviral activity against vaccinia virus; format: functional, organism-based; conditions: Orthopoxvirus vaccinia
[8] = system: Poliovirus 1; assay: Antiviral activity against Human poliovirus 1 Sabin; format: functional
[9] = system: Bovine viral diarrhea virus 1; assay: Antiviral activity against BVDV NADL in MDBK cells assessed as protection from virus-induced cytopathogenicity by MTT method; format: functional, organism-based; conditions: Bovine viral diarrhea virus isolates and strains

SMILES	Activity [1]	EC50 [2] [µM]	EC50 [3] [µM]	Activity [4]	CC50 at 96 h [5] [µM]	Activity [6]	Activity [7]	Activity [8]	EC50 [9] [µM]
CCCOc1ccc2ccc(=O)oc2c1CN1CCc2ccccc2C1	inactive	> 25	> 19	inactive	11	inactive	inactive	inactive	
CCCOc1ccc2ccc(=O)oc2c1CN1CCN(C/C=C/c2ccccc2)CC1	inactive	> 100	> 48	inactive	16	inactive	inactive	inactive	15
Cc1[nH]c2ccccc2c1Cc1c(OC(=O)CCCC(=O)O)ccc2c(C)cc(=O)oc12	inactive	> 100	> 64	inactive	29	inactive	inactive	inactive	> 69
CN1CCN(Cc2c(O)ccc3ccc(=O)oc23)CC1	inactive	> 100	> 100	inactive	> 100	inactive	inactive	inactive	> 100
CCC(=O)Oc1[nH]c2ccccc2c1Cc1c(OC(C)=O)ccc2ccc(=O)oc12	inactive	60	> 72	inactive	67	inactive	inactive	inactive	> 64
CCN(CC)c1oc2cc(OC)ccc2c(=O)c1Cc1c(O)ccc2c(C)cc(=O)oc12	inactive	> 100	> 100	inactive	> 100	inactive	inactive	inactive	> 100
CCC(=O)Oc1ccc2ccc(=O)oc2c1Cc1c[nH]c2ccccc12	inactive	> 54	> 52	inactive	65	inactive	inactive	inactive	≥ 55
Cc1cc(=O)oc2c(CN3CCc4ccccc4C3)c(O)ccc12	inactive	> 100	> 100	inactive	> 100	inactive	inactive	inactive	> 100
COc1ccc2[nH]cc(Cc3c(OC(C)=O)ccc4c(C)cc(=O)oc34)c2c1	inactive	> 100	> 100	inactive	72	inactive	inactive	inactive	> 100
O=c1ccc2ccc(O)c(CN3CCOCC3)c2o1	inactive	> 100	> 100	inactive	> 100	inactive	inactive	inactive	> 100

— ChEMBL document CHEMBL1144007, “Activity of Mannich bases of 7-hydroxycoumarin against Flaviviridae” (Bioorg Med Chem, 2008)
